The text below walks through data of US7763441B2, “Modulators of gluconeogenesis” (Wyeth, priority 2006, dated 2010).

Where two headings read alike, the source gives them in different places.

One assay has as its system EGR1 expression. To be noted: H4IIE, AICAR. How it is done: The anti-tubulin blot is a loading control.
(§1) Double-stranded cDNA was synthesized starting with 5 μg of total RNA from the cells using the SuperScript System (Invitrogen, Carlsbad, Calif.). The cDNA was purified by filtration through Multiscreen filter plate (Millipore), and transcribed in vitro using T7 RNA polymerase (Epicentre, Madison, Wis.) and biotinylated nucleotides (Perkin-Elmer, Boston, Mass.). Hybridization buffer containing the spike pool reagent was added to each of the fragmented cRNA mixtures and each sample was hybridized to the Mouse Genome 430 2.0 array ([…]) or Rat Genome 230 2.0 array (RAE230) (Affymetrix, Santa Clara) at 45° C. for 18 hours as recommended by the manufacturer. The hybridized chips were washed and stained using Affymetrix Fluidics Station 450 and the EukGE-WS2v4—450 protocol as recommended by the manufacturer. The staining was performed using streptavidin-phycoerythrin conjugate (SAPE; Molecular Probes, Eugene, Oreg.), followed by biotinylated antibody against streptavidin (Vector Laboratories, Burlingame, Calif.), and then SAPE. The chips were scanned using an Affymetrix Genechip Scanner and .cel files were generated with Affymetrix Microarray Suite 5.0 (MAS 5.0) software.
Total RNA was isolated from these cells and hybridized on the RAE430 2.0 array and analyzed in the same manner as the AML12 cells.

The test system of the next assay is Fao hepatoma cells. Put plainly: Glucose production assay in Fao cells. The assay is classed as cell-based. To be noted: cAMP plus dexamethasone, 500 μM AICAR. How it is done:
For the experiment shown in panel A, Fao cells were transfected with either EGR1 or DUSP4 siRNA Smartpools. […] The cells were then cultured with phenol-red and glucose free RPMI1640 with 20 mM lactate and 2mM pyruvate. After 3 hours the media was collected and glucose output was determined. The data are presented as relative glucose production with the untreated transfected cells' glucose output set as 1. The asterisk indicates key changes between samples. P-values of all changes are ≦0.01 as determined by T-test. Panel B contains Western blots of EGR1 and DUSP4 or representative samples from the glucose production assay following transfection with the indicated siRNA Smartpools. The tubulin blot is included as a loading control.
1 million Fao cells cultured in RPMI1640 with 10% FCS were transfected with siGenome SMARTpool reagents for EGR1 (#M-100247-00), DUSP4 (#M-098966-00), or siCONTROL Non-Targeting siRNA (Dharmacon) using Optifect (Invitrogen) at 25 nM final concentration. […] Medium was collected 5 hours later and subjected to glucose measurement using the Amplex® Red Glucose/Glucose Oxidase Assay Kit (Molecular Probes). Cells were lysed and protein concentration was determined. The glucose output rate was normalized by cellular protein concentration and expressed as μg glucose/mg protein/5 hr. […]

For a further assay, the system named is EGR1 message. To be noted: AML12, 500 μM AICAR. How it is done: (§2) Each gene is represented by a single row and each sample, in triplicate at each time point, by a column. […] The mean expression±STD of DUSP4 (qualifier #1428834_at) and EGR1 (qualifier #1417065_at) are illustrated graphically as well as highlighted in yellow on the cluster.
(§3) AML12 cells were maintained in DMEM/F12 medium containing 10% FCS, […], 5 ng/ml selenium and 40 ng/ml dexamethasone.
as §1
(§4) Using normalized data, after removing lowly expressed genes, we performed ANOVA analysis.

For a further assay, the system named is DUSP4 message. To be noted: AML12, 500 μM AICAR. Here is the method:
as §2, §3, §1, §4

In another assay the test system is JNK. To be noted: H4IIE cells, data not shown. From the text: Members of the DUSP family show differing specificities for the MAPK family of kinases. DUSP4 has been previously shown to dephosphorylate and inactivate the MAPK family members ERK and JNK, but not p38.
(§5) FIG. 7A includes a Western blot probed with anti-p38 or anti-phosphor-p38 antibodies (Cell Signaling Technology) at a 1:1000 dilution.

For a further assay, the system named is DUSP4 mRNA. To be noted: H4IIE, AICAR. The source says: (§6) As in FIG. 2, the anti-tubulin blot is a loading control.
(§7) Taqman was utilized since the DUSP4 probe set on the RAE430 2.0 array was not as sensitive as the DUSP4 set on the MOE430 2.0 array.

The test system of the next assay is rat PEPCK promoter. Put plainly: PEPCK-SEAP reporter assay in H4IIE cells. The format is cell-based. Here is the method:
FIG. 5 schematically depicts the effects of EGR1 and DUSP4 expression levels on PEPCK promoter activity. For the experiments shown in panels A and B, H4IIE hepatocytes were transfected with the PEPCK-SEAP reporter plasmid and either DUSP4 or EGR1 expression plasmids or DUSP4 or EGR1 siRNA Smartpools. 24 hours after transfection the media were changed to 0.5%FBS/DMEM for 5 hours. […] Panel A depicts the effects of EGR1 modulation on PEPCK promoter activity; panel B depicts the effects of DUSP4 modulation on PEPCK promoter activity.
(§8) Panel A is a Western blot of H4IIE cells starved for 6 hours and then treated as indicated by the chart for 2 hours. […] is a specific p38 chemical inhibitor. LPS is included as a positive control of p38 activation.
The rat PEPCK promoter (−548 to +73) was amplified from rat genomic DNA using primers 5′-[…]-3′ (SEQ ID NO:8) and 5′-[…]-3′ (SEQ ID NO:9) (Xu et al. (2003)) J. Biol. Chem. 278:30187-30192). The human G6P promoter (−1227 to +57) was amplified from human genomic DNA using primers: 5′-[…]-3′ (SEQ ID NO:10) and 5′-[…]-3′ (SEQ ID NO:11). The promoters were subsequently cloned into XhoI and HindIII sites of pSEAP-BASIC vector (Clontech).
H4IIE cells were seeded in 24-well plates and transfected at 90% confluence using Tfx-50 Reagent (Promega). 0.9 μg of each SEAP reporter and 0.2 μg of pCMV-β-gal (BD Biosciences) were included. 0.4 μg of pCMV-XL5-human-DUSP4 (NM_001394, Origene) or pCMV-Sport6-human EGR1 (BC073983, Open Biosystems), or pMEV2HA-P38-WT and P38-EE (Biomyx), or empty pCMV-Sport6 were included. SiGenome Smartpool reagents were included at […]. […] 60 μl of the media was utilized for the SEAP assay (Great EscAPe SEAP Kit, BD Biosciences) and cell lysate was used for β-gal assay (Luminescent β-galactosidase detection kit, BD Biosciences).
A general note: In a reporter assay the amount or activity of a reporter protein is the signal.

Assay [1] deals with rat DUSP4 promoter EGR1 site. To be noted: H4IIE, AICAR 2 or 6 hours.
Description: Arrows indicate sites of primers used for chromatin immunoprecipitation assay (−72 to −261 bp from the transcriptional start site).
To cross-link protein and DNA, formaldehyde was added at a 1% (vol/vol) concentration to H4IIE cells in a 100 mm dish. Fixation proceeded for 10 min at room temperature with gentle shaking and was stopped with the addition of glycine to a final concentration of 0.125M, and then the mixture was incubated at room temperature for 5 min. The cells were then washed twice with cold phosphate-buffered saline (PBS), harvested, and washed once with PBS containing PMSF. The cell pellet was lysed with immunoprecipitation assay lysis buffer (150 mM NaCl, 1% NP-40, 0.5% deoxycholate, 0.1% sodium dodecyl sulfate [SDS], 50 mM Tris [pH 8], 5 mM EDTA and protease inhibitors [1 mM PMSF, 10 μg of aprotinin/ml, 10 μg of leupeptin/ml]) and incubated on ice for 10 min. The resulting lysate was sonicated to give chromatin of an average length of 600 to 1,000 bp. The lysate was then microcentrifuged at 14,000 rpm for 10 min at 4° C. The lysate was then precleared with 50 μl of protein A beads (IPA 400; Repligen) for 15 min. Immunoprecipitations were performed overnight with 2 μg of antibody in a total volume of 500 μl at 4° C. […] A 5 μl aliquot was analyzed by PCR with Vent polymerase (NEB). […]
The next assay deals with G6P and PEPCK expression. To be noted: rat hepatoma cells or primary hepatocytes (Lochhead et al. 2000); cited from earlier work.
In the next assay the target is T1, p38 (Rattus norvegicus, UniProt P70618).
T1 construct: addition of cAMP to serum starved H4IIE cells for 2 hours leads to an increase in the phosphorylation of p38; endogenous in cells; host or cells: H4IIE rat hepatoma cells
Description: Western blot of p38 phosphorylation in serum starved H4IIE cells. The assay is classed as cell-based. To be noted: 2 hours. How it is done: as §8, §5

Another assay relates to DUSP4 protein. To be noted: H4IIE. How it is done:
as §6
Lysates were prepared with a buffer containing 20 mM Tris (pH 7.5), 150 mM NaCl, 1 mM EDTA, 1 mM EGTA, 1% Triton X-100, 2.5 mM sodium pyrophosphate, 1 mM β-glycerophosphate, 1 mM sodium vanadate, and 1 μg of leupeptin/ml. 20 μg of lysate for each sample was run on NuPAGE 10% polyacrylamide bis/tris gels (Invitrogen) and transferred to PVDF membrane. Following blocking with 5% milk in TBS, anti-EGR1 (SC-110, Santa Cruz) at 1:1000 or anti alpha-tubulin (Abcam) at 1:2000 was blotted in TBS with 0.1% Tween. Goat anti-mouse HRP (Jackson Immuno-Research) was used at 1:5000 and blots were visualized by using enhanced chemiluminescence (NEN).
as §7

Another assay relates to EGR1. To be noted: Bauer et al. 2005; cited from earlier work.

T1 sequence (P70618 whole entry): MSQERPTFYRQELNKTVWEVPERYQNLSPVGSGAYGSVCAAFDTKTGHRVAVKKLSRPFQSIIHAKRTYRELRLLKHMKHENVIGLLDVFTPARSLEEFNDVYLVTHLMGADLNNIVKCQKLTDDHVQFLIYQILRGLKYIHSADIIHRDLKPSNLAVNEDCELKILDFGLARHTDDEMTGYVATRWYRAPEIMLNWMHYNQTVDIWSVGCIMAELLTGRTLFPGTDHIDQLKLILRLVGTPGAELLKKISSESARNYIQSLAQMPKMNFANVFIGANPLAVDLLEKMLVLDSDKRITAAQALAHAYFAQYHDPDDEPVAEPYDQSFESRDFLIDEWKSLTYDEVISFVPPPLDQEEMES

In the case of `NC(=O)c1ncn([C@@H]2O[C@H](CO)[C@@H](O)[C@H]2O)c1N` [AICAR], the “EGR1 expression increase relative to control” value is reported as 6 fold in the assay on EGR1 expression (2 hours), 5 fold with EGR1 expression (6 hours) and 3 fold with EGR1 expression (24 hours). In addition, the “Glucose output after inhibition, distance from untreated levels” value in the assay with Fao hepatoma cells is at most 30%. Besides, the “EGR1 increase relative to control” value with EGR1 message (2 hours) was found to be 3 fold; in the assay on EGR1 message (6 hours), 3 fold; with EGR1 message (24 hours), 2 fold. Besides, the “DUSP4 message increase relative to untreated controls” value in the assay on DUSP4 message (2 hours) is reported as 4 fold; in the assay with DUSP4 message (6 hours), 6 fold; in the assay with DUSP4 message (24 hours), 5 fold. Further, the JNK activity result in the assay on JNK is “not inhibited”. Besides, the values for the DUSP4 message increase with DUSP4 mRNA (2 hours), with DUSP4 mRNA (6 hours) and in the assay with DUSP4 mRNA (24 hours) were 20 fold, 4 fold and 4 fold, respectively. In the assay with rat PEPCK promoter (100 μM AICAR by itself), the “Inhibition of PEPCK activation at low AICAR concentration” value is on record as “not sufficient to inhibit PEPCK activation”. In addition, the “PEPCK transcription (activation)” value with rat PEPCK promoter (100 μM AICAR, without exogenous EGR1) is 12 fold. In the assay with rat PEPCK promoter (AICAR, control siRNA included), the “Repression of cAMP and dexamethasone activation of PEPCK reporter” value is reported as “fully repressed”. In addition, in the assay on rat PEPCK promoter (FIG. 7B), the “Effect on cAMP activation of the PEPCK promoter” value is “repress cAMP activation of the PEPCK promoter”. Further, the “Inhibition of cAMP and dexamethasone activation of the PEPCK promoter” value in the assay with rat PEPCK promoter (PEPCK-SEAP, AICAR 500 μM or DUSP4 expression vector) is “approximately 36 fold”. Also, the “EGR1 site of DUSP4 promoter amplified after anti-EGR1 chromatin immunoprecipitation (189 bp PCR product)” value in assay [1] is “amplified”. The “Expression of G6P and PEPCK” value in the assay on G6P and PEPCK expression was “inhibits expression G6P and PEPCK”. Besides, at p38, the “cAMP-induced phosphorylation of p38 (Western blot)” value is on record as “inhibited”. In addition, the “Time of AICAR treatment within which DUSP4 is induced” value in the assay with DUSP4 protein (AICAR) was at most 2 h. The “DUSP4 protein level (Western blot)” value in the assay with DUSP4 protein (AICAR time course, decrease to more basal levels at 12 hours) was “increase of DUSP4 protein at 2 and 6 hours”.

Consider SB205830, for which the “cAMP-induced phosphorylation of p38 (Western blot)” value at p38 is listed as “inhibited”.

For the molecule `CCCCCCCCCCCCCC(=O)O[C@@H]1[C@@H](C)[C@@]2(O)[C@@H](C=C(CO)C[C@]3(O)C(=O)C(C)=C[C@@H]23)[C@@H]2C(C)(C)[C@]12OC(C)=O` [TPA, 12-O-tetradecanoylphorbol-13-acetate], the EGR1 biosynthesis entry with EGR1 was “strongly upregulates EGR1 biosynthesis”.
